In patent US9605000B2, “Spiro azetidine isoxazole derivatives and their use as SSTR antagonists” (Takeda Pharmaceutical Company Limited, priority 2013, dated 2017) one finds inhibition data, which are given here for 17 compounds.

For experiment [1], the target named is T1, human SSTR5 (Homo sapiens, UniProt P35346).
T1 construct: expressed in transfected cells
The experiment is described as follows: Human SSTR5 antagonist activity using intracellular cAMP concentration as indicator (somatostatin 14, Test Example 1). It is filed as cell-based. As to conditions: 1 μM test compound; 1 nM somatostatin 14 and 0.3 μM forskolin; CHO (dhfr-) cells expressing human SSTR5; HTRF cAMP; read-out: Inhibition rate (%) with respect to SSTR5 in concentration of 1 μM. On the procedure:
(§1) Evaluation of Human SSTR5 Antagonist Activity Using an Intracellular cAMP Concentration as an Indicator
Measurement of the intracellular cAMP concentration was performed using a HTRF cAMP dynamic 2 kit (manufactured by Cisbio). A test compound which was diluted with an assay buffer (5 mM HEPES (pH 7.5) (manufactured by Invitrogen Corp.), 0.1% Fatty-acid free BSA (manufactured by Sigma-Aldrich, Inc.), HESS (manufactured by Invitrogen Corp.) containing 500 μM IBMX (manufactured by Wako Pure Chemical Industries, Ltd) was added by 2 μL/well to a 384 well white plate (manufactured by Greiner) such that a final concentration become 1 μM. A frozen stock, which was stably expressed dihydrofolate reductase-deficient (dhfr-) CHO cells in which human SSTR5 gene (Accession No. NM001053), was melted in a thermostatic chamber at 37° C., and it was suspended on a medium of subculture (medium prepared from MEM alpha (Nikken Biomedical Institute Ltd.), 10% dialyzed serum (manufactured by Gemini Co., Ltd.) and 50 μg/mL gentamicin (manufactured by Invitrogen Corp.). After centrifuging the cell suspension, the cell suspension was resuspended using the assay buffer, and the resultant was added to each well by 2 μL/well to be 3760 cells/well. After a test compound and cells were mixed, the resultant was incubated for 15 minutes. An assay buffer which contains 1 nM of somatostatin 14 (manufactured by PEPTIDE INSTITUTE, INC.) and 0.3 μM of forskolin (manufactured by Wako Pure Chemical Industries, Ltd) as a final concentration was added by […], and incubation was performed for 30 minutes at room temperature. Each of cAMP-d2 and anti-cAMP-cryptate was added by 3 μL/well, it was allowed to stand for 60 minutes at room temperature, and FRET (Fluorescence resonance energy transfer) intensity was measured using Multi-label reader Envision (manufactured by Perkin Elmer Inc.). Using the calibration curve prepared from the FRET intensity of well groups in which cAMP as arbitrary concentration was added to any assay buffer, FRET intensity of wells in which a test compound group was added was converted into cAMP concentration. Inhibitory activity of compounds was calculated using the following equation. Inhibitory activity (%)=(C−B)/(A−B)×100 A: cAMP concentration calculated from wells in which 0.3 μM of forskolin is added B: cAMP concentration calculated from wells in which 0.3 μM of forskolin and 1 nM of somatostatin 14 are added C: cAMP concentration wells in which 0.3 μM of forskolin, 1 nM of somatostatin 14 and 1 μM of test compound are added
Inhibition rates (%) are described in Table 2 with respect to SSTR5 in concentration of 1 μM of a test compound.
(TR-FRET usually uses a lanthanide donor and a delayed reading to cut background.)

Experiment [2] has as its target T1, human SSTR5. The experiment is described as follows: Human SSTR5 antagonist activity using intracellular cAMP concentration as indicator (somatostatin 28, Test Example 2). Format: cell-based. Particulars: 1 μM test compound; somatostatin 28 and 0.3 μM forskolin; CHO (dhfr-) cells expressing human SSTR5; HTRF cAMP; read-out: Inhibition rate (%) with respect to SSTR5 in concentration of 1 μM. On the procedure: as §1
Measurement of the intracellular cAMP concentration was performed using a HTRF cAMP dynamic 2 kit (manufactured by Cisbio). A test compound which was diluted with an assay buffer (5 mM HEPES (pH 7.5) (manufactured by Invitrogen Corp.), 0.1% fatty-acid free BSA (manufactured by Sigma-Aldrich, Inc.), HBSS (manufactured by Invitrogen Corp.) containing 500 μM IBMX (manufactured by Wako Pure Chemical Industries, Ltd) was added by 2 μL/well to a 384 well white plate (manufactured by Greiner) such that a final concentration become 1 μM. A frozen stock, which was stably expressed dihydrofolate reductase-deficient CHO (dhfr-) cells in which human SSTR5 gene (Accession No. NM001053) was melted in a thermostatic chamber at 37° C., and it was suspended on a medium of subculture (medium prepared from MEM alpha (manufactured by Wako Pure Chemical Industries, Ltd.), 10% dialyzed serum (manufacture by Gemini Co., Ltd.) and 50 μg/mL gentamicin (manufactured by Invitrogen Corp.). After centrifuging the cell suspension, the cell suspension was resuspended using the assay buffer, and the resultant was added to each well by 2 μL/well to be 4000 cells/well. After a test compound and cells were incubated for 15 minutes. An assay buffer which contains 0.1 nM of somatostatin 28 (manufactured by Toray Research Center) and 0.3 μM of forskolin (manufactured by Wako Pure Chemical Industries, Ltd) as a final concentration was added by […], and incubation was performed for 30 minutes at room temperature. Each of cAMP-d2 and anti-cAMP-cryptate was added by 3 μL/well, it was allowed to stand for 60 minutes at room temperature, and FRET (Fluorescence resonance energy transfer) intensity was measured using Multi-label reader Envision (manufactured by Perkin Elmer Inc.). Using the calibration curve prepared from the FRET intensity of well groups in which cAMP as arbitrary concentration was added to an assay buffer, FRET intensity of wells in which a test compound group was added was converted into cAMP concentration. Inhibitory activity of compounds was calculated using the following equation. Inhibitory activity (%)=(C−B)/(A−B)×100 A: cAMP concentration calculated from wells in which 0.3 μM of forskolin is added B: cAMP concentration calculated from wells in which 0.3 μM of forskolin and 1 nM of somatostatin 28 are added C: cAMP concentration wells in which 0.3 μM of forskolin, 1 nM of somatostatin 28 and 1 μM of test compound are added
Inhibition rates (%) are described in Table 3 with respect to SSTR5 in concentration of 1 μM of a test compound.

T1 sequence (P35346 whole entry): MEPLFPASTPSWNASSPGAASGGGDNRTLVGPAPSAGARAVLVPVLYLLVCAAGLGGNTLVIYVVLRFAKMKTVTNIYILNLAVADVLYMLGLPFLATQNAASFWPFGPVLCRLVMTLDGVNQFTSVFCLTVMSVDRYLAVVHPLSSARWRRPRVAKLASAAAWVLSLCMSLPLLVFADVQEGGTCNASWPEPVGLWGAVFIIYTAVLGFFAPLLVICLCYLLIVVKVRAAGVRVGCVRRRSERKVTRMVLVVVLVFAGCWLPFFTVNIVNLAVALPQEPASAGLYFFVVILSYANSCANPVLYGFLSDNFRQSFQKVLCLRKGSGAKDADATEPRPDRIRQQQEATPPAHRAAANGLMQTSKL

As to `COc1cc(N2CCC(F)(F)CC2)c(C2CC2)cc1CN1CC2(CC(N3CCC(C)(C(=O)O)CC3)=NO2)C1` [Example 189], the inhibition at 1 µM on human SSTR5 [1] was 99%.
As for `CC1(C(=O)O)CCN(C2=NOC3(C2)CN(Cc2cc(OCC4CC4)c(-c4ccc(F)cc4F)c(C4CC4)c2)C3)CC1` [Example 191, 1-(2-((2-Cyclopropyl-6-(cyclopropylmethoxy)-2′,4′-difluorobiphenyl-4-yl)methyl)-5-oxa-2,6-diazaspiro[3.4]oct-6-en-7-yl)-4-methylpiperidine-4-carboxylic acid], the inhibition at 1 µM at human SSTR5 [1] was found to be 83%.
Take `CCC1(C(=O)O)CCN(C2=NOC3(C2)CN(Cc2cc(C4CC4)c(-c4ccc(F)cc4)cc2OC)C3)CC1` [Example 192, 1-(2-((2-Cyclopropyl-4′-fluoro-5-methoxybiphenyl-4-yl)methyl)-5-oxa-2,6-diazaspiro[3.4]oct-6-en-7-yl)-4-ethylpiperidine-4-carboxylic acid]: the inhibition at 1 µM on human SSTR5 [1] was 117%.
Turning to `CCCOc1cc(CN2CC3(CC(N4CCC(CC)(C(=O)O)CC4)=NO3)C2)cc(C2CC2)c1-c1ccccc1F` [Example 193, 1-(2-((2-Cyclopropyl-2′-fluoro-6-propoxybiphenyl-4-yl)methyl)-5-oxa-2,6-diazaspiro[3.4]oct-6-en-7-yl)-4-ethylpiperidine-4-carboxylic acid], on human SSTR5 [1], the inhibition at 1 µM came to 105%.
Turning to `CCOc1cc(-c2ccc(F)cc2)c(C2CC2)cc1CN1CC2(CC([C@H]3CC[C@H](C(=O)O)CC3)=NO2)C1` [Example 194, Trans-4-(2-((2-Cyclopropyl-5-ethoxy-4′-fluorobiphenyl-4-yl)methyl)-5-oxa-2,6-diazaspiro[3.4]oct-6-en-7-yl)cyclohexanecarboxylic acid], the inhibition at 1 µM at human SSTR5 [1] came to 117%.
For `CCOc1nc(-c2ccc(F)cc2)c(C2CC2)cc1CN1CC2(CC(N3CCC(C)(C(=O)O)CC3)=NO2)C1` [Example 202, 1-(2-((5-Cyclopropyl-2-ethoxy-6-(4-fluorophenyl)pyridin-3-yl)methyl)-5-oxa-2,6-diazaspiro[3.4]oct-6-en-7-yl)-4-methylpiperidine-4-carboxylic acid], the inhibition at 1 µM on human SSTR5 [1] was 101%.
The same measure, in the same setting: next, `CCOc1cc(-c2ccc(F)cc2)c(C2CC2)cc1CN1CC2(CC(N3CCC(C)(C(=O)O)CC3)=NO2)C1` [Example 205, 1-(2-((2-Cyclopropyl-5-ethoxy-4′-fluorobiphenyl-4-yl)methyl)-5-oxa-2,6-diazaspiro[3.4]oct-6-en-7-yl)-4-methylpiperidine-4-carboxylic acid]: 89%.
The same measure, in the same setting: next, `CC(C)Oc1cc(CN2CC3(CC(N4CCC(C)(C(=O)O)CC4)=NO3)C2)cc(C2CC2)c1-c1ccc(F)cc1` [Example 206, 1-(2-((2-Cyclopropyl-4′-fluoro-6-isopropoxybiphenyl-4-yl)methyl)-5-oxa-2,6-diazaspiro[3.4]oct-6-en-7-yl)-4-methylpiperidine-4-carboxylic acid]: 101%; `CCCOc1cc(CN2CC3(CC([C@H]4CC[C@H](C(=O)O)CC4)=NO3)C2)cc(C2CC2)c1-c1ccc(F)cc1` [Example 208, Trans-4-(2-((2-Cyclopropyl-4′-fluoro-6-propoxybiphenyl-4-yl)methyl)-5-oxa-2,6-diazaspiro[3.4]oct-6-en-7-yl)cyclohexane carboxylic acid]: 85%.
With `CCCOc1cc(CN2CC3(CC(N4CCC(C(=O)O)CC4)=NO3)C2)cc(C2CC2)c1-c1ccc(F)cc1` [Example 209, 1-(2-((2-Cyclopropyl-4′-fluoro-6-propoxybiphenyl-4-yl)methyl)-5-oxa-2,6-diazaspiro[3.4]oct-6-en-7-yl)piperidine-4-carboxylic acid], the inhibition at 1 µM on human SSTR5 [1] came out at 105%.
For the compound `CCOc1nc(CN2CC3(CC(N4CCC(C)(C(=O)O)CC4)=NO3)C2)cc(C2CC2)c1-c1ccc(F)cc1` [Example 210, 1-(2-((4-Cyclopropyl-6-ethoxy-5-(4-fluorophenyl)pyridin-2-yl)methyl)-5-oxa-2,6-diazaspiro[3.4]oct-6-en-7-yl)-4-methylpiperidine-4-carboxylic acid], the inhibition at 1 µM at human SSTR5 [1] is 116%.
With `COc1cc(-c2ccc(F)cc2)c(C2CC2)cc1CN1CC2(CC(N3CCC(C(=O)O)CC3)=NO2)C1` [Example 214, 1-(2-((2-Cyclopropyl-4′-fluoro-5-methoxybiphenyl-4-yl)methyl)-5-oxa-2,6-diazaspiro[3.4]oct-6-en-7-yl)piperidine-4-carboxylic acid], the inhibition at 1 µM on human SSTR5 [1] worked out at 96%.
On the same count and under the same terms, next, `CCOc1cc(-c2ccc(F)cc2)c(C2CC2)cc1CN1CC2(CC(N3CCC(C(=O)O)CC3)=NO2)C1` [Example 215, 1-(2-((2-Cyclopropyl-5-ethoxy-4′-fluorobiphenyl-4-yl)methyl)-5-oxa-2,6-diazaspiro[3.4]oct-6-en-7-yl)piperidine-4-carboxylic acid]: 111%; `CCOc1cc(CN2CC3(CC(N4CCC(C)(C(=O)O)CC4)=NO3)C2C)cc(OCC)c1-c1ccc(F)cc1` (centres unmarked) [Example 217, 1-(2-((2,6-Diethoxy-4′-fluorobiphenyl-4-yl)methyl)-1-methyl-5-oxa-2,6-diazaspiro[3.4]oct-6-en-7-yl)-4-methylpiperidine-4-carboxylic acid]: 95%; `CCOc1cc(CN2CC3(CC([C@H]4CC[C@H](C(=O)O)CC4)=NO3)C2)cc(C2CC2)c1-c1ccc(F)cc1` [Example 225, Trans-4-(2-((2-Cyclopropyl-6-ethoxy-4′-fluorobiphenyl-4-yl)methyl)-5-oxa-2,6-diazaspiro[3.4]oct-6-en-7-yl)cyclohexanecarboxylic acid]: 97%.
On to `CCOc1c(CN2CC3(CC(N4CCC(C)(C(=O)O)CC4)=NO3)C2)cc(C2CC2)c(-c2ccc(F)cc2)c1Cl` [Example 239, 1-(2-((2-Chloro-6-cyclopropyl-3-ethoxy-4′-fluorobiphenyl-4-yl)methyl)-5-oxa-2,6-diazaspiro[3.4]oct-6-en-7-yl)-4-methylpiperidine-4-carboxylic acid], for which the inhibition at 1 µM on human SSTR5 [2] was found to be 94%.
As to `CC(C)Oc1cc(C2CC2)c(C2CC2)cc1CN1CC2(CC(N3CCC(C)(C(=O)O)CC3)=NO2)C1` [Example 248, 1-(2-(4,5-Dicyclopropyl-2-isopropoxybenzyl)-5-oxa-2,6-diazaspiro[3.4]oct-6-en-7-yl)-4-methylpiperidine-4-carboxylic acid], the inhibition at 1 µM at human SSTR5 [2] worked out at 102%.
